In general, inhibition refers to the drop in the measured response relative to a control, in per cent.

We go through 10 compounds from ChEMBL document CHEMBL5665443, “Enzyme Inhibitor Single Concentration assay results for EUbOPEN Chemogenomics Library” (2024).

Common to all, as to conditions: Compound Concentration 10.0 uM, Hit No
For assay [1], the target named is T1, Adenine DNA glycosylase (Homo sapiens) (UniProt Q9UIF7).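 Note: human MUTYH activity read as 594 nm fluorescence from cleavage and release of a quenched DNA duplex, coupled with APE1 for strand incision, lower signal meaning inhibition.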
T1 sequence (whole entry): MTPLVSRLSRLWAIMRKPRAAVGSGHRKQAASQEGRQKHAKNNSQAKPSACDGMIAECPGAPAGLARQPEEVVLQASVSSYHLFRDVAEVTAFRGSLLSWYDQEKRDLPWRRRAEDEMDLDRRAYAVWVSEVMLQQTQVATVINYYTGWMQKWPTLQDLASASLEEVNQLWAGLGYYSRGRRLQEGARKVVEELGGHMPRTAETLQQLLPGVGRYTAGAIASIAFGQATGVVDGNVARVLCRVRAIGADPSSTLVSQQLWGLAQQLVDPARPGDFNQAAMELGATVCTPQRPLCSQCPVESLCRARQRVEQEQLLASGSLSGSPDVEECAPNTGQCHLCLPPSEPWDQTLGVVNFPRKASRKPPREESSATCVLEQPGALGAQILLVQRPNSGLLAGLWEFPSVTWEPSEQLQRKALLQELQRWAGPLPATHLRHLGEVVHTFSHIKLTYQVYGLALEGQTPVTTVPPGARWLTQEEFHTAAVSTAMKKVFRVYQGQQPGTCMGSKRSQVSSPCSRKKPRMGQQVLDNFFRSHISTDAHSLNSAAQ
Description: Inhibition of MUTYH by quantifying inhibition of MUTYH-mediated cleavage and dissociation of quenched duplex DNA oligonucleotides, measured as fluorescence at 594 nm. To generate a functional strand incision and increase turn-over this assay is coupled to APE1.

Assay [2] concerns the target DNA-3-methyladenine glycosylase (Homo sapiens) (UniProt P29372).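 Note: enzyme assay where MPG cuts a quenched duplex DNA oligonucleotide probe, paired with APE1 for strand incision and turnover, read as fluorescence at 594 nm.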
Description: Inhibition of MPG by quantifying inhibition of MPG-mediated cleavage and dissociation of quenched duplex DNA oligonucleotides, measured as fluorescence at 594 nm. To generate a functional strand incision and increase turn-over this assay is coupled to APE1.
In assay [3] the target is Endonuclease 8-like 1 (Homo sapiens) (UniProt Q96FI4).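 Note: fluorescence at 594 nm from quenched duplex DNA oligonucleotides released by NEIL1 cleavage and strand separation, reported as reduction of this enzyme activity.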
Chain of Endonuclease 8-like 1 (Homo sapiens) (Q96FI4 whole entry): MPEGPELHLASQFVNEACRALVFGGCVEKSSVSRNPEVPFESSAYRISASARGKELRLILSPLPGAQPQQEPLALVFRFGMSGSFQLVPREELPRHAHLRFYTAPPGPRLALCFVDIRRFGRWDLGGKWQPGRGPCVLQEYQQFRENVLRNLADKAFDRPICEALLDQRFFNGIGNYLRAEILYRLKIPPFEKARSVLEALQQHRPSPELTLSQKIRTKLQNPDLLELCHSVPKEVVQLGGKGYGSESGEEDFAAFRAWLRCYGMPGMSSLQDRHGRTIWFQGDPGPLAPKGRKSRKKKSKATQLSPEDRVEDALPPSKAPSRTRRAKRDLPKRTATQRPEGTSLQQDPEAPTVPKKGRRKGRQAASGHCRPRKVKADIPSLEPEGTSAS
Description: Inhibition of NEIL1 by quantifying inhibition of NEIL1-mediated cleavage and dissociation of quenched duplex DNA oligonucleotides, measured as fluorescence at 594 nm.
For assay [4], the target named is T2, Endonuclease 8-like 2 (Homo sapiens) (UniProt Q969S2).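 Note: fluorescence at 594 nm reports NEIL2 cutting and release of a quenched double-stranded DNA oligo substrate, reduced signal read as inhibition.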
T2 sequence (whole entry): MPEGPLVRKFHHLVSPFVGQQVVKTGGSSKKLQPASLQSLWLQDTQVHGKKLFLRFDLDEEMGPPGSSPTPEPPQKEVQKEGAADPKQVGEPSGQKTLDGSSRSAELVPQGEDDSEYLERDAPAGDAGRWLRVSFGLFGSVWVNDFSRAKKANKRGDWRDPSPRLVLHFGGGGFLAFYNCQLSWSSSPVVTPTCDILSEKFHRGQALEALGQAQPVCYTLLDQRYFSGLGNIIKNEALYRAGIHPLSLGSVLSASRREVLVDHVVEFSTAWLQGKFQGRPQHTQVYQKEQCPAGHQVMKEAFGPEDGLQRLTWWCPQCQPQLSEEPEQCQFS
Description: Inhibition of NEIL2 by quantifying inhibition of NEIL2-mediated cleavage and dissociation of quenched duplex DNA oligonucleotides, measured as fluorescence at 594 nm.

The target of assay [5] is G/T mismatch-specific thymine DNA glycosylase (Homo sapiens) (UniProt Q13569).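 Note: human TDG cleavage of quenched duplex DNA oligonucleotides coupled to APE1, strand release read as fluorescence at 594 nm, inhibition of TDG activity.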
Chain of G/T mismatch-specific thymine DNA glycosylase (Homo sapiens) (Q13569 whole entry): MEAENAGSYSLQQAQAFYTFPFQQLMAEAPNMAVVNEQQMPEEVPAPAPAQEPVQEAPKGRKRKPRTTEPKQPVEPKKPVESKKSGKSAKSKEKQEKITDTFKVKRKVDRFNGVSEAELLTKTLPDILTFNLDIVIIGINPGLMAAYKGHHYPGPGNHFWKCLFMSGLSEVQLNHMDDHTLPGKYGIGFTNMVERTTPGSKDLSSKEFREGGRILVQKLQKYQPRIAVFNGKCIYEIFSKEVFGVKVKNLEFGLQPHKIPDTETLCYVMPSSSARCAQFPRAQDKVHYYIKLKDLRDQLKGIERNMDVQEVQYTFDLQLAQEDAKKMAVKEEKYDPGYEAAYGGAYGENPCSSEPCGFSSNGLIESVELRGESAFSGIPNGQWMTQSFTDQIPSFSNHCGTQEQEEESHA
Description: Inhibition of TDG by quantifying inhibition of TDG-mediated cleavage and dissociation of quenched duplex DNA oligonucleotides, measured as fluorescence at 594 nm. To generate a functional strand incision and increase turn-over this assay is coupled to APE1.
Assay [6] deals with T3, Endonuclease III-like protein 1 (Homo sapiens) (UniProt P78549).
T3 sequence (whole entry): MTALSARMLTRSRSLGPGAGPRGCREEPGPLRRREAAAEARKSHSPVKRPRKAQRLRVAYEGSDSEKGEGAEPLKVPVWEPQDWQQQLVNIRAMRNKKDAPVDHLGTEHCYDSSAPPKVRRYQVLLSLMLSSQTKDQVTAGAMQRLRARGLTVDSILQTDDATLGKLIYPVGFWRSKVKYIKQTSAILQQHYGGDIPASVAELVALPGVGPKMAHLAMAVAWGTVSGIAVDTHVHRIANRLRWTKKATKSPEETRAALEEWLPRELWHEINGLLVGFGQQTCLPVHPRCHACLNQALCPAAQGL
Description: Inhibition of NTHL1 by quantifying inhibition of NTHL1-mediated cleavage and dissociation of quenched duplex DNA oligonucleotides, measured as fluorescence at 594 nm.

Assay [7] concerns the target Methyl-CpG-binding domain protein 4 (Homo sapiens) (UniProt O95243).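 Note: MBD4 activity read as fluorescence at 594 nm from cleavage and release of a quenched duplex DNA oligonucleotide, with APE1 coupled to incise the strand and raise turnover.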
Description: Inhibition of MBD4 by quantifying inhibition of MBD4-mediated cleavage and dissociation of quenched duplex DNA oligonucleotides, measured as fluorescence at 594 nm. To generate a functional strand incision and increase turn-over this assay is coupled to APE1.
Assay [8] addresses N-glycosylase/DNA lyase (Homo sapiens) (UniProt O15527).
Description: Inhibition of OGG1 by quantifying inhibition of OGG1-mediated cleavage and dissociation of quenched duplex DNA oligonucleotides, measured as fluorescence at 594 nm. To generate a functional strand incision and increase turn-over this assay is coupled to APE1.
The target in assay [9] is Uracil-DNA glycosylase (Homo sapiens) (UniProt P13051).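 Note: UNG excision on a quenched double-stranded DNA oligo probe, with APE1 added for strand incision and turnover, read as fluorescence at 594 nm as strands separate.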
Chain of Uracil-DNA glycosylase (Homo sapiens) (P13051 whole entry): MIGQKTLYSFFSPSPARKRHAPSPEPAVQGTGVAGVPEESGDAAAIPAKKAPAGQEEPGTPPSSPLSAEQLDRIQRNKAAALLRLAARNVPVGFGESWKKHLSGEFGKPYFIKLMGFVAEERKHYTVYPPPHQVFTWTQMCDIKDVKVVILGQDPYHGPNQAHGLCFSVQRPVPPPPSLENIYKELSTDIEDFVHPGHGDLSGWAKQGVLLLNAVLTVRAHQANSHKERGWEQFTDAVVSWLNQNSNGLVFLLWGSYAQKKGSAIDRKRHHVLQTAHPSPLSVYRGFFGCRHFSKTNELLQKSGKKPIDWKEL
Description: Inhibition of UNG by quantifying inhibition of UNG-mediated cleavage and dissociation of quenched duplex DNA oligonucleotides, measured as fluorescence at 594 nm. To generate a functional strand incision and increase turn-over this assay is coupled to APE1.
Assay [10] deals with T4, Single-strand selective monofunctional uracil DNA glycosylase (Homo sapiens) (UniProt Q53HV7).
T4 sequence (whole entry): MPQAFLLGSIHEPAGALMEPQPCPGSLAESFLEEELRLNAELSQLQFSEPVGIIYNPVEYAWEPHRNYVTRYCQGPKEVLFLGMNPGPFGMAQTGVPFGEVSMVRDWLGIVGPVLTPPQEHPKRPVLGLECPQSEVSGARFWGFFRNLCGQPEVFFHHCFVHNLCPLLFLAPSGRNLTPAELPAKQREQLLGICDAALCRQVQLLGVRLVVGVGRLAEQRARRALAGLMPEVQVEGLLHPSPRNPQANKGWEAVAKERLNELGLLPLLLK
Description: Inhibition of SMUG1 by quantifying inhibition of SMUG1-mediated cleavage and dissociation of quenched duplex DNA oligonucleotides, measured as fluorescence at 594 nm. To generate a functional strand incision and increase turn-over this assay is coupled to APE1.

Chain of N-glycosylase/DNA lyase (Homo sapiens) (O15527 whole entry): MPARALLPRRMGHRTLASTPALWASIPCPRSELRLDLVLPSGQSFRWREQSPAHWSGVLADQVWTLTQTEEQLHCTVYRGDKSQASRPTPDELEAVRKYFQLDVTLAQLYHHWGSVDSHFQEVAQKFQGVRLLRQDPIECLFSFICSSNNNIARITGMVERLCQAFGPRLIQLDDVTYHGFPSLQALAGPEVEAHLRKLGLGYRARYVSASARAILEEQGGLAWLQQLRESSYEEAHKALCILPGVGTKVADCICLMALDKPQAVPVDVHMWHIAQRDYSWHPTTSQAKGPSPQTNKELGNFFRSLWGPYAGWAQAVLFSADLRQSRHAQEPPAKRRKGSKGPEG
Chain of Methyl-CpG-binding domain protein 4 (Homo sapiens) (O95243 whole entry, the tested form may be a part): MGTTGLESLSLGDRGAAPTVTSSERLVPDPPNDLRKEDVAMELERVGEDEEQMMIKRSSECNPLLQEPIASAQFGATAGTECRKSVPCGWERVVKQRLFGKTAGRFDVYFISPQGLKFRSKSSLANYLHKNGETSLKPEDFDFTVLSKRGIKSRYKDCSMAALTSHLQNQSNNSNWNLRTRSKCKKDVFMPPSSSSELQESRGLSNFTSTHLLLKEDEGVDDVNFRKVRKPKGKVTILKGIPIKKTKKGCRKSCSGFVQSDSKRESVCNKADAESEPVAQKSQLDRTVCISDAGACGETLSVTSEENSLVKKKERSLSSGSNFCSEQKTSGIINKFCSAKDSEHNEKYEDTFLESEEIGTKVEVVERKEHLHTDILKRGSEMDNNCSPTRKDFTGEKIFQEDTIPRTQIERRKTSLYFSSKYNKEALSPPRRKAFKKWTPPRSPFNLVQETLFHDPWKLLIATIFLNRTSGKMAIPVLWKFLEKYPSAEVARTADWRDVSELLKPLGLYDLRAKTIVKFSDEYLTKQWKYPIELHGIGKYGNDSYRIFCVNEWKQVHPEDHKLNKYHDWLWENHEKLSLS
Chain of DNA-3-methyladenine glycosylase (Homo sapiens) (P29372 whole entry): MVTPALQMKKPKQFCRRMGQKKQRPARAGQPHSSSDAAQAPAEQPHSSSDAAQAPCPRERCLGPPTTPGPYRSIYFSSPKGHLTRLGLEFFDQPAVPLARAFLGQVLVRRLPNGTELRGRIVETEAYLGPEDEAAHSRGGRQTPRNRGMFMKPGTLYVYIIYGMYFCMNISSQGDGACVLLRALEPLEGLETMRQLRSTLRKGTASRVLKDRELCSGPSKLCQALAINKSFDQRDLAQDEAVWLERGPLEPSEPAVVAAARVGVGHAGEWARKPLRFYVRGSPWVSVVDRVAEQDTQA

For the compound `O=C1c2ccccc2C(Cc2ccncc2)(Cc2ccncc2)c2ccccc21`, the inhibition is 8.2% in assay [1]; 12.1% in assay [2]; 6.83% in assay [3]; -2.64% in [4]; 21.3% in assay [5]; 20.4% in assay [6]. Further, the inhibition in assay [7] is 23.6%.
In the case of `C[C@H](C[C@H](N)C(=O)O)C(=O)O`, the inhibition in assay [1] is 17%; in assay [2], 14.2%; in assay [3], -6.51%; in assay [4], 0.414%; in assay [5], 0.112%; in assay [6], -6.04%. The inhibition in assay [7] worked out at 13.5%.
As to `CNc1nc(Nc2ccccc2)nc(OC(C(F)(F)F)C(F)(F)F)n1`, the inhibition is -4.15% in assay [1]; -9.6% in assay [2]; 2.83% in assay [3]; 1.69% in assay [4]; 4.54% in assay [5]; -3.77% in [8]. Besides, the inhibition in [9] was determined as 1.86%; in [6], 19.6%; in assay [10] it was 2.08%.
Regarding `CN(C(=O)/C=C/c1ccoc1)[C@@H]1CC[C@@]2(O)[C@H]3Cc4ccc(O)c5c4[C@@]2(CCN3CC2CC2)[C@H]1O5`, the inhibition in [1] is 8.72%; in assay [2] it was 5.81%; in [3], 14.2%; in [4], 1.76%; in [5], 13.5%; in assay [8], -1.76%. The values for the inhibition in assay [9], in [6] and in [10] were -6.84%, 1.92% and -7.79%, respectively.
H-RPPGFSPFR-OH: the inhibition in assay [1] was 29%; in assay [2], 15.2%; in assay [3] it was 4.01%; in assay [4], -1.37%; in assay [5], 26.9%; in assay [8] it was -0.678%. The inhibition is 2.31% in assay [9], 1.39% in [6] and 5.92% in [10].
For `NCCc1ccc(O)c(O)c1`, the inhibition in assay [1] was 17.9%; in assay [2], -0.746%; in [3] it was 2.32%; in assay [4], -3.23%; in assay [5], 8.49%; in assay [8] it was -1.68%. Besides, the inhibition was -7.47% in assay [9], 21% in assay [6] and -4.83% in assay [10].
Take `O=C(O)[C@H]1O[C@H](OP(=O)(O)OP(=O)(O)OC[C@H]2O[C@@H](n3ccc(=O)[nH]c3=O)[C@H](O)[C@@H]2O)[C@H](O)[C@@H](O)[C@@H]1O`: the inhibition in [1] is 14.9%; in assay [2], 24.7%; in assay [4], -7.23%; in [5], 15.8%; in assay [6], 15.4%; in assay [7], 18.3%.
Take `CN1CCC(C(=O)c2cccc(NC(=O)c3c(F)cc(F)cc3F)n2)CC1`: the inhibition in assay [1] is 9.62%; in assay [2], 2.3%; in assay [3], 4.54%; in [4] it was -1.73%; in assay [5], 19.6%; in assay [8], -2.69%. The inhibition is -8.11% in assay [9], -6.14% in [6] and -9.63% in assay [10].
In the case of `CC[C@H](NC(=O)c1c(C)c(-c2ccccc2)nc2ccccc12)c1ccccc1`, the inhibition is 0.0213% in assay [1]; 4.04% in assay [2]; -0.204% in assay [3]; -1.98% in [4]; -2.42% in assay [5]; -1.61% in [8]. For the same compound, the inhibition was -6.75% in [9], 9.25% in assay [6] and -0.0333% in assay [10].
With `c1ccc2c(c1)CCC[C@H]2Nc1nc2ccccc2[nH]1`, the inhibition came out at 2.96% in assay [1]; 9.2% in assay [2]; 4.46% in [3]; 3.47% in assay [4]; 8.8% in assay [5]; 1.89% in [8]. For the same compound, the results for the inhibition in [9], in [6] and in [10] were -4.72%, 4.7% and -5.61%, respectively.
